Like-named read-outs stand apart in the source and are kept apart here.
Legend:
[1] = molecular target: T1, human recombinant ETB receptors (Homo sapiens, UniProt P24530); assay: Inhibition of [125I]ET-1 binding to membranes from CHO cells carrying human ETB receptors
T1 construct: expressed in transfected cells; host or cells: CHO cells (microsomal membranes)
T1 sequence (P24530 27-442): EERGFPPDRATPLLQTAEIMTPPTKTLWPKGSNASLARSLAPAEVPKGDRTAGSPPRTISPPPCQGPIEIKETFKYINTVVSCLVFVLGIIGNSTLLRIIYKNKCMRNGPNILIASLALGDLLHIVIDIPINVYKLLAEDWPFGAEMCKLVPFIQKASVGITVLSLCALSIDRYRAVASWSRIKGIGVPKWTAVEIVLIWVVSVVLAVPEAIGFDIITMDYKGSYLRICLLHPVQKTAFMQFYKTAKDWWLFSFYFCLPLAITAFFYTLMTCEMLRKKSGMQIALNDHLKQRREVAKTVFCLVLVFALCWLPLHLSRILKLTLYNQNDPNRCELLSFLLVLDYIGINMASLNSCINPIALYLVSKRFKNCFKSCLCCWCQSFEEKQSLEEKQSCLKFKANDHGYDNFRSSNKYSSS
Procedure: (§1) 1) Inhibition of Endothelin Binding to Membranes from CHO Cells Carrying Human ET Receptors
(§2) For competition binding studies, membranes of CHO cells expressing human recombinant ETA or ETB receptors were used. Microsomal membranes from recombinant CHO cells were prepared and the binding assay made as previously described (Breu V., et al, FEBS Lett 1993; 334:210).
(§3) The assay was performed in 200 uL 50 mM Tris/HCl buffer, pH 7.4, including 25 mM MnCl2, 1 mM EDTA and 0.5% (w/v) BSA in polypropylene microtiter plates. […] After 2 h, the membranes were filtered on filterplates containing GF/C filters (Unifilterplates from Canberra Packard S.A. Zürich, Switzerland). To each well, 50 uL of scintillation cocktail was added (MicroScint 20, Canberra Packard S.A. Zürich, Switzerland) and the filter plates counted in a microplate counter (TopCount, Canberra Packard S.A. Zürich, Switzerland).
(§4) All the test compounds were dissolved, diluted and added in DMSO.

[2] = molecular target: T2, human recombinant ETA receptors (Homo sapiens, UniProt P25101); assay: Inhibition of [125I]ET-1 binding to membranes from CHO cells carrying human ETA receptors; conditions: CHO cell membranes, 8 pM [125I]ET-1, 2 h at 20° C.
T2 construct: expressed in transfected cells; host or cells: CHO cells (microsomal membranes)
T2 sequence (P25101 21-427): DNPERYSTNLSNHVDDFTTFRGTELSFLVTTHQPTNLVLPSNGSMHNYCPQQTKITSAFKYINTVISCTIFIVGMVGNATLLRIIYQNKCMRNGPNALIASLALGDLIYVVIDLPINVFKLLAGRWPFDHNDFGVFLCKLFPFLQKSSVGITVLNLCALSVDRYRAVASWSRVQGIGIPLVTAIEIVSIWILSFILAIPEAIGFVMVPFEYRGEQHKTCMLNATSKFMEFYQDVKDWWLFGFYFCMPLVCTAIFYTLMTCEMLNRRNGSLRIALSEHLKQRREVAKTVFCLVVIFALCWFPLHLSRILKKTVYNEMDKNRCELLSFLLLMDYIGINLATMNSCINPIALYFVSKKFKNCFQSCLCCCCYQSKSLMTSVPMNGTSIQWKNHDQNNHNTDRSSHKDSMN
Procedure: as §1, §2, §3, §4

In the case of `COc1ccc(-c2c(NS(=O)(=O)/C=C/c3ccccc3)ncnc2OCCOc2ncc(Cl)cn2)cc1` [Example 120], the IC50 [1] is reported as 1630 nM and the IC50 [2] is reported as 38.7 nM.

`COc1ccc(-c2c(NS(=O)(=O)/C=C/c3ccccc3)ncnc2OCCOc2ccc(Br)cn2)cc1` [Example 124] showed an IC50 [1] of 309 nM and an IC50 [2] of 33.2 nM.

With `Cc1ccc(-c2c(NS(=O)(=O)/C=C/c3ccccc3)nc(-c3cnccn3)nc2OCCOc2ncc(Br)cn2)cc1` [Example 125] the IC50 [1] was 2700 nM and the IC50 [2] was 6.7 nM.

`COc1cnc(OCCOc2nc(-c3cnccn3)nc(NS(=O)(=O)/C=C/c3ccccc3)c2-c2ccc(C)cc2)nc1` [Example 126] was tested, and the IC50 [1] was 3640 nM and the IC50 [2] was 9 nM.

`Cc1ccc(-c2c(NS(=O)(=O)/C=C/c3ccccc3)nc(N3CCOCC3)nc2OCCOc2ncc(Br)cn2)cc1` [Example 127] gave an IC50 [1] of 2750 nM and an IC50 [2] of 14.2 nM.

Compound `Cc1ccc(-c2c(NS(=O)(=O)/C=C/c3ccccc3)nc(C3CC3)nc2OCCOc2ncc(Br)cn2)cc1` [Example 132] has an IC50 [1] of 1660 nM and an IC50 [2] of 5.7 nM.

With `COc1cnc(OCCOc2nc(C3CC3)nc(NS(=O)(=O)/C=C/c3ccccc3)c2-c2ccc(C)cc2)nc1` [Example 133] the IC50 [1] was 1770 nM and the IC50 [2] was 8.2 nM.

`Cc1ccc(-c2c(NS(=O)(=O)/C=C/c3ccccc3)nc(C3CC3)nc2OCCOc2ncc(Cl)cn2)cc1` [Example 134] was tested, and the IC50 [1] was 4890 nM and the IC50 [2] was 6.3 nM.

In the case of `Cc1ccc(-c2c(NS(=O)(=O)/C=C/c3ccccc3)nc(C)nc2OCCOc2ncc(Br)cn2)cc1` [Example 138], the IC50 [1] is reported as 1340 nM and the IC50 [2] is reported as 4.4 nM.

Compound `COc1cnc(OCCOc2nc(C)nc(NS(=O)(=O)/C=C/c3ccccc3)c2-c2ccc(C)cc2)nc1` [Example 139] has an IC50 [1] of 1690 nM and an IC50 [2] of 9.8 nM.

With `COc1cnc(OCCOc2nc(-c3ncccn3)nc(NS(=O)(=O)/C=C/c3ccccc3)c2-c2ccc(C)cc2)nc1` [Example 144] the IC50 [1] was 3060 nM and the IC50 [2] was 10 nM.

Compound `Cc1ccc(-c2c(NS(=O)(=O)/C=C/c3cccs3)nc(-c3ncccn3)nc2OCCOc2ncc(Br)cn2)cc1` [Example 145] has an IC50 ([1]; CHO cell membranes, 8 pM [125I]ET-1, 2 h at 20° C.) of 2380 nM and an IC50 [2] of 9.1 nM.

For `COc1ccccc1Oc1c(NS(=O)(=O)/C=C/c2cccs2)nc(-c2ncccn2)nc1OCCOc1ncc(Br)cn1` [Example 157], the IC50 [1] was 4500 nM and the IC50 [2] was 21.7 nM.

`COc1ccccc1Oc1c(NS(=O)(=O)/C=C/c2cccs2)nc(-c2ncccn2)nc1OCCOc1ncccn1` [Example 158] gave an IC50 [1] of 1260 nM and an IC50 [2] of 12.1 nM.

For `COc1ccccc1Oc1c(NS(=O)(=O)/C=C/c2ccccc2)nc(-c2ccncc2)nc1OCCOc1ncc(Br)cn1` [Example 159], the IC50 [1] was 2280 nM and the IC50 [2] was 7.3 nM.

For `COc1cnc(OCCOc2nc(-c3ccncc3)nc(NS(=O)(=O)/C=C/c3ccccc3)c2Oc2ccccc2OC)nc1` [Example 160], the IC50 [1] was 757 nM and the IC50 [2] was 12.9 nM.

For `COc1ccccc1Oc1c(NS(=O)(=O)/C=C/c2ccccc2)nc(-c2ccncc2)nc1OCCOc1ncc(Cl)cn1` [Example 164], the IC50 [1] was 1560 nM and the IC50 [2] was 10 nM.

Work on `COc1ccccc1Oc1c(NS(=O)(=O)/C(C)=C/c2ccccc2)nc(-c2ccncc2)nc1OCCOc1ncc(Br)cn1` [Example 175] yielded an IC50 [1] of 499 nM and an IC50 [2] of 4.7 nM.

`COc1ccccc1Oc1c(NS(=O)(=O)/C(C)=C/c2ccccc2)nc(-c2ccncc2)nc1OCCOc1ncc(Cl)cn1` [Example 176] gave an IC50 [1] of 1080 nM and an IC50 [2] of 4.1 nM.

With `COc1cnc(OCCOc2nc(-c3ccncc3)nc(NS(=O)(=O)/C(C)=C/c3ccccc3)c2Oc2ccccc2OC)nc1` [Example 177] the IC50 [1] was 363 nM and the IC50 [2] was 5.5 nM.

With `COc1ccccc1Oc1c(NS(=O)(=O)/C=C/c2ccsc2)nc(-c2ccncc2)nc1OCCOc1ncc(Br)cn1` [Example 178] the IC50 [1] was 671 nM and the IC50 [2] was 5 nM.

`COc1cnc(OCCOc2nc(-c3ccncc3)nc(NS(=O)(=O)/C=C/c3ccsc3)c2Oc2ccccc2OC)nc1` [Example 179] was tested, and the IC50 [1] was 699 nM and the IC50 [2] was 9 nM.

With `COc1ccccc1Oc1c(NS(=O)(=O)/C=C/c2ccsc2)nc(-c2ccncc2)nc1OCCOc1ncccn1` [Example 180] the IC50 [1] was 1030 nM and the IC50 [2] was 7.4 nM.

`COc1ccccc1Oc1c(NS(=O)(=O)/C=C/c2ccsc2)nc(-c2ccncc2)nc1OCCOc1ncc(Cl)cn1` [Example 181] gave an IC50 [1] of 1980 nM and an IC50 [2] of 7.1 nM.

For `COc1ccccc1Oc1c(NS(=O)(=O)/C=C/c2ccccc2)nc(-c2cnccn2)nc1OCCOc1ncc(Br)cn1` [Example 182], the IC50 [1] was 1400 nM and the IC50 [2] was 16.7 nM.

`COc1cnc(OCCOc2nc(N3CCOCC3)nc(NS(=O)(=O)/C=C/c3ccccc3)c2Oc2ccccc2OC)nc1` [Example 197] was tested, and the IC50 [1] was 220 nM and the IC50 [2] was 5 nM.

With `COc1ccccc1Oc1c(NS(=O)(=O)/C=C/c2ccccc2)nc(N2CCOCC2)nc1OCCOc1ncc(C(F)(F)F)cn1` [Example 198] the IC50 [1] was 595 nM and the IC50 [2] was 7.9 nM.

Compound `COc1ccccc1Oc1c(NS(=O)(=O)/C(C)=C/c2ccccc2)nc(N2CCOCC2)nc1OCCOc1ncc(Br)cn1` [Example 202] has an IC50 [1] of 349 nM and an IC50 [2] of 2.4 nM.

Compound `COc1cnc(OCCOc2nc(N3CCOCC3)nc(NS(=O)(=O)/C(C)=C/c3ccccc3)c2Oc2ccccc2OC)nc1` [Example 203] has an IC50 [1] of 249 nM and an IC50 [2] of 3.4 nM.

In the case of `COc1ccccc1Oc1c(NS(=O)(=O)/C=C/c2ccccc2)nc(N2CCOCC2)nc1OCCOc1ncc(SC)cn1` [Example 204], the IC50 [1] is reported as 138 nM and the IC50 [2] is reported as 3.3 nM.

`COc1ccccc1Oc1c(NS(=O)(=O)/C=C/c2cccs2)ncnc1OCCOc1ncc(Br)cn1` [Example 214] gave an IC50 [1] of 3940 nM and an IC50 [2] of 39 nM.

Compound `COc1ccccc1Oc1c(NS(=O)(=O)/C=C/c2ccccc2)ncnc1OCCOc1ncc(SC)cn1` [Example 222] has an IC50 [1] of 506 nM and an IC50 [2] of 41 nM.

In the case of `COc1ccc(Cl)c(Oc2c(NS(=O)(=O)/C=C/c3ccccc3)ncnc2OCCOc2ncc(Br)cn2)c1` [Example 225], the IC50 [1] is reported as 830 nM and the IC50 [2] is reported as 5.2 nM.

Work on `COc1cnc(OCCOc2ncnc(NS(=O)(=O)/C=C/c3ccccc3)c2Oc2cc(OC)ccc2Cl)nc1` [Example 226] yielded an IC50 [1] of 1550 nM and an IC50 [2] of 15.4 nM.

Work on `COc1ccc(Cl)c(Oc2c(NS(=O)(=O)/C=C/c3ccccc3)nc(-c3ccncc3)nc2OCCOc2ncc(Br)cn2)c1` [Example 228] yielded an IC50 [1] of 3910 nM and an IC50 [2] of 14.5 nM.

In the case of `COc1cccc(Oc2c(NS(=O)(=O)/C=C/c3ccccc3)ncnc2OCCOc2ncc(Br)cn2)c1` [Example 230], the IC50 [1] is reported as 937 nM and the IC50 [2] is reported as 12.3 nM.

In the case of `COc1cccc(Oc2c(NS(=O)(=O)/C=C/c3ccccc3)ncnc2OCCOc2ncc(SC)cn2)c1` [Example 232], the IC50 [1] is reported as 290 nM and the IC50 [2] is reported as 10 nM.

From patent publication US6951856B2, “Arylethene-sulfonamides” (Actelion Pharmaceuticals Ltd., priority 2000, dated 2005)
